Reference: patent US20250376484A1, “PRMT5 INHIBITORS AND USES THEREOF” (Gilead Sciences, Inc., priority 2024, published 2025)

What was measured:
[1] = system: HCT116 MTAP-deleted cell lines; experiment: Cell viability assay (CellTitre-Glo), HCT116 MTAP-deleted; format: cell-based; conditions: for CC50: Homo sapiens, HCT-116, 168 h, HCT116 MTAP-deleted cells, 7 days of treatment, CTG luminescence, read-out: MTAP^del HCT116 CC50; for Selectivity: WT HCT116 CC50 versus MTAP^del HCT116 CC50
Description: (§1) Control compounds were analyzed in parallel each time for quality control.
(§2) In Brief, on Day-1, a serial dilution of stock compounds in DMSO was performed using BioMek liquid handlers and dispensed using Echo acoustic dispenser into 384 well plates. Both tool compounds and sample compounds were spotted in the same plate for a dose response of PRMT5 inhibitors. Compound plates were stored as frozen until the cells were ready for seeding.
(§3) On Day 0, 100 HCT WT or HCT116 MTAP-deleted cells were seeded in compound-containing 384 well plates (50 μl per well) in RPMI 1640 media supplemented with 10% heat inactivated fetal bovine serum, Glutamax and penicillin streptomycin using EL460 liquid dispenser 5 μl cassette (BioTek, part no. 7170011). After equilibrating the plate in room temperature, the cells were incubated for 7 days inside the sealed incubator set at 37° C. with […] and 5% CO2.
(§4) On Day 7, the viability of cells was measured using a CTG assay kit (CellTitre-Glo; Promega cat no. G7573). Shortly, 40 μl per well of luminescent cell viability assay reagent were dispensed using EL460 liquid dispenser 5 μl cassette. CTG luminescence signal was measured using an EnVision plate reader (PerkinElmer) in accordance with manufacturer's instruction. The CC50 values for each compound after 7 days of treatment were calculated using 4 parameter non-linear logistical curve fit.

[2] = biological target: T1, BCRP (Homo sapiens, UniProt Q9UNQ0); experiment: MDR1/BCRP assay: efflux ratio in cPgp-KO-BCRP-KI cells; format: in vitro ADME; conditions: dog, efflux ratio Papp (B-to-A)/Papp (A-to-B), 2-hour time point, read-out: cPgp-KO-BCRP-KI (ER)
T1 construct: host or cells: MDCK cells with canine Pgp knocked out and BCRP knocked in (cPgp-KO-BCRP-KI)
T1 sequence (Q9UNQ0 1-655): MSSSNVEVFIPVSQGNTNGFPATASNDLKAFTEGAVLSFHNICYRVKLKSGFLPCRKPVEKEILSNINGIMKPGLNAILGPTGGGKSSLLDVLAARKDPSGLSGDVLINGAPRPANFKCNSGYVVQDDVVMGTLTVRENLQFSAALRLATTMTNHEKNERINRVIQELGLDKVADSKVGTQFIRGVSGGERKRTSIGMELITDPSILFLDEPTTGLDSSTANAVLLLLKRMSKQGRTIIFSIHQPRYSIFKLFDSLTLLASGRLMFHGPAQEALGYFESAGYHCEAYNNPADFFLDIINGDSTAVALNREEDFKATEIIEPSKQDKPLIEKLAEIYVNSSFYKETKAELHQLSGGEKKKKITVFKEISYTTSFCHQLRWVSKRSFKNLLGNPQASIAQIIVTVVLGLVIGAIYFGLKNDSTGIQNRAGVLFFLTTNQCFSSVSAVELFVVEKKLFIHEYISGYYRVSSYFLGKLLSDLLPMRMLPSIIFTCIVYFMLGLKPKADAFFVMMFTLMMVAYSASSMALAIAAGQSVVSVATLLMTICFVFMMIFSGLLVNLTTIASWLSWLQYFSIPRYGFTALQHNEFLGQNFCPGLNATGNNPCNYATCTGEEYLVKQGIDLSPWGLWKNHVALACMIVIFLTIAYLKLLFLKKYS
Description: (§5) cPgp-KO-MDCK-WT, cPgp-KO-MDR1-KI, and cPgp-KO—BCRP—KI cells (all from Sigma) were cultured in Dulbecco's Modification of Eagle's Medium (DMEM) with 4.5 g/L glucose, sodium pyruvate, and GlutaMAX (Gibco) supplemented with 1% Pen/Strep and 10% fetal bovine serum. The cells were maintained in an incubator at 37° C., 90% humidity, and 5% CO2 until reaching confluence over 5 days in 96-well transwell plates. Experiments were conducted using an HBSS donor buffer (Invitrogen) containing 10 mM HEPES and 15 mM glucose, adjusted to pH 7.4. The receiver well contained HBSS buffer supplemented with 1% BSA, 10 mM HEPES, and 15 mM glucose, and the pH was adjusted to 7.4. TEER values were measured to assess membrane integrity after an initial equilibration with BSA-free transport buffer for 15 minutes. The experiment was started by adding dosing solutions containing test compounds at 1 μM. Cells were dosed on the apical (A) side or basolateral (B) side at 100 μl and 200 μl, respectively, to determine forward (A to B) and reverse (B to A) permeability. At the 2-hour time point, 50 μl samples were collected from the receiver compartment. Each compound was tested in 2 separate replicate wells for each condition. All samples were immediately collected into plates, and 50 μL of acetonitrile was added. Subsequently, 350 μl of 30:70 methanol: acetonitrile containing internal standard was added to precipitate proteins and stabilize the test compounds. To test for non-specific binding and compound instability, the total amount of the drug was quantified at the end of the experiment and compared to the material present in the original dosing solution as a percentage of the recovery. All samples were analyzed by LC-MS/MS using electrospray ionization.
(§6) The apparent permeability, Papp, and % recovery were calculated as follows: […]

[3] = MDR1/BCRP assay: permeability in cPgp-KO-MDCK-WT cells; format: in vitro ADME; conditions: dog, test compounds at 1 μM, 2-hour time point, pH 7.4
Description: as §5, §6

[4] = Cell viability assay (CellTitre-Glo), HCT116 WT; format: cell-based; conditions: human; HCT116 WT cells, 7 days of treatment, CTG luminescence
Description: as §1, §2, §3, §4

[5] = biological target: T2, MDR1 (Homo sapiens, UniProt P08183); experiment: MDR1/BCRP assay: efflux ratio in cPgp-KO-MDR1-KI cells; format: in vitro ADME; conditions: dog, MDCK-MDR1, efflux ratio Papp (B-to-A)/Papp (A-to-B), 2-hour time point, read-out: cPgp-KO-MDR1-KI (ER)
T2 construct: host or cells: MDCK cells with canine Pgp knocked out and MDR1 knocked in (cPgp-KO-MDR1-KI)
T2 sequence (P08183 whole entry): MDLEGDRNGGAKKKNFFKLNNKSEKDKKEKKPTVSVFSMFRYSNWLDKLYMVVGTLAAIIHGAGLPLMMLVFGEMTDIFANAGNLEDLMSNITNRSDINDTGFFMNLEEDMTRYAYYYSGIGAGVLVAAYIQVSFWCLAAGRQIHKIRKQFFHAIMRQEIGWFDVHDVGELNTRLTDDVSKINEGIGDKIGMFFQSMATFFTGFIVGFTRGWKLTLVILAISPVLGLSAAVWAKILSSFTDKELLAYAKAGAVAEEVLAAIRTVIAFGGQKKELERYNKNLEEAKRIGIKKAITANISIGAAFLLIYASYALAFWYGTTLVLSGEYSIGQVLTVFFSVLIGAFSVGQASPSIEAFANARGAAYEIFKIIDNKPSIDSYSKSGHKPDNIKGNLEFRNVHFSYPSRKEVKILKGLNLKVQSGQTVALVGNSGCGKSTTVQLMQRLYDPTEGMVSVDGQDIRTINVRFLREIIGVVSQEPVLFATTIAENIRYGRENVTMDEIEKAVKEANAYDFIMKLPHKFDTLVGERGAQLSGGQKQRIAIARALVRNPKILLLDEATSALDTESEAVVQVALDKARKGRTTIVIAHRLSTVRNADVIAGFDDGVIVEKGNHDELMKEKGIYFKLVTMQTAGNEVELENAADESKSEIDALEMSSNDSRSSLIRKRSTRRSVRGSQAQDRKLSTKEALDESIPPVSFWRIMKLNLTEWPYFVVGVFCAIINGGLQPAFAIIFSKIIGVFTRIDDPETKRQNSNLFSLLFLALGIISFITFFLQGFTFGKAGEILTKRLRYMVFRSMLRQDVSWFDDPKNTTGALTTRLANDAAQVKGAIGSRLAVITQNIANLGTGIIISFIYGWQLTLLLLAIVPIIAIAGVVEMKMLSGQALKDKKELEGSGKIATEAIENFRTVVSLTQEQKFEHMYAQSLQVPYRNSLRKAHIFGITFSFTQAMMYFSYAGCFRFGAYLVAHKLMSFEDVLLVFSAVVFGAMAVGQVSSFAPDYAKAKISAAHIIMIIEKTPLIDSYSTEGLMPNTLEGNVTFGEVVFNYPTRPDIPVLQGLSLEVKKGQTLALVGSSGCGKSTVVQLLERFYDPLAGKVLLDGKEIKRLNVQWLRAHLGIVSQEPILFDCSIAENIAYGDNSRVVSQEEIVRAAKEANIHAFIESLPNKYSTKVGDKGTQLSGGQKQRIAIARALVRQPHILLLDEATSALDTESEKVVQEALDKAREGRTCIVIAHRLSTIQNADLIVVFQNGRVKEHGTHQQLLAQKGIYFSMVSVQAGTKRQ
Description: as §5, §6

| Structure (SMILES) | efflux ratio at 2 h, 1 μM [2] | Papp A→B at 2 h, 1 µM [3] | efflux ratio at 2 h, 1 μM [5] | CC50 [1] | Selectivity [1] | CC50 at 7 days [4] |
| --- | --- | --- | --- | --- | --- | --- |
| C[C@@H]1CN(C(=O)C(=O)Nc2cnc(N)c3c2cnn3C)[C@H]2c3ccc(C(F)(F)F)cc3C[C@H]2O1 [Example Ca-10, N-(7-amino-1-methyl-1H-pyrazolo[3,4-c]pyridin-4-yl)-2-((2R,4aS,9aR)-2-methyl-7-(trifluoromethyl)-2,3,9,9a-tetrahydroindeno[2,1-b][1,4]oxazin-4(4aH)-yl)-2-oxoacetamide] | 1.1 | 17.7 ×10⁻⁶ cm/s | 1 | 28 nM | 96 | 2720 nM |
| Nc1ncc(NC(=O)C(=O)N2CCC[C@@H]3Oc4cc(C(F)(F)F)ccc4[C@@H]32)c2c1COC2 [Example Cc-1, N-(4-amino-1,3-dihydrofuro[3,4-c]pyridin-7-yl)-2-oxo-2-((4aS,9bS)-7-(trifluoromethyl)-3,4,4a,9b-tetrahydrobenzofuro[3,2-b]pyridin-1(2H)-yl)acetamide] |  |  |  | 50 nM | 38 | 1940 nM |
| Nc1ncc(NC(=O)C(=O)N2CCC[C@@H]3Oc4cc(C(F)(F)F)cc(F)c4[C@@H]32)c2c1COC2 [Example Cc-2, N-(4-amino-1,3-dihydrofuro[3,4-c]pyridin-7-yl)-2-((4aS,9bS)-9-fluoro-7-(trifluoromethyl)-3,4,4a,9b-tetrahydrobenzofuro[3,2-b]pyridin-1(2H)-yl)-2-oxoacetamide] |  |  |  | 51 nM | 37 | 1910 nM |
| Cn1ncc2c(NC(=O)C(=O)N3CCC[C@@H]4Oc5cc(OC(F)F)c(F)cc5[C@@H]43)cnc(N)c21 (relative stereo) [Example Ca-9, cis-N-(7-amino-1-methyl-1H-pyrazolo[3,4-c]pyridin-4-yl)-2-(7-(difluoromethoxy)-8-fluoro-3,4,4a,9b-tetrahydrobenzofuro[3,2-b]pyridin-1(2H)-yl)-2-oxoacetamide] | 1.6 | 15.3 ×10⁻⁶ cm/s | 1.8 | 34 nM | 119 | 4100 nM |
| [2H]C([2H])([2H])n1ncc2c(NC(=O)C(=O)N3CCC[C@@H]4Oc5cc(C(F)(F)F)cc(F)c5[C@@H]43)cnc(N)c21 [Example Cb-1, N-(7-amino-1-(methyl-d3)-1H-pyrazolo[3,4-c]pyridin-4-yl)-2-((4aS,9bS)-9-fluoro-7-(trifluoromethyl)-3,4,4a,9b-tetrahydrobenzofuro[3,2-b]pyridin-1(2H)-yl)-2-oxoacetamide] |  |  |  | 12 nM | 99 | 1240 nM |

Second part, led by results:

| efflux ratio at 2 h, 1 μM [2] | Papp A→B at 2 h, 1 µM [3] | efflux ratio at 2 h, 1 μM [5] | Structure (SMILES) | CC50 [1] | Selectivity [1] | CC50 at 7 days [4] |
| --- | --- | --- | --- | --- | --- | --- |
| 0.7 | 12.2 ×10⁻⁶ cm/s | 0.8 | Cn1ncc2c(NC(=O)C(=O)N3CCC[C@@H]4Oc5cc(C(F)(F)F)ccc5[C@@H]43)cnc(N)c21 [Example Ca-2, N-(7-amino-1-methyl-11H-pyrazolo[3,4-c]pyridin-4-yl)-2-oxo-2-((4aS,9bS)-7-(trifluoromethyl)-3,4,4a,9b-tetrahydrobenzofuro[3,2-b]pyridin-1(2H)-yl)acetamide] | 12 nM | 78 | 935 nM |
| 0.7 | 12.6 ×10⁻⁶ cm/s | 1.1 | C[C@H]1CN(C(=O)C(=O)Nc2cnc(N)c3c2cnn3C)[C@H]2c3ccc(C(F)(F)F)cc3C[C@H]2O1 [Example Ca-3, N-(7-amino-1-methyl-11H-pyrazolo[3,4-c]pyridin-4-yl)-2-((2S,4aS,9aR)-2-methyl-7-(trifluoromethyl)-2,3,9,9a-tetrahydroindeno[2,1-b][1,4]oxazin-4(4aH)-yl)-2-oxoacetamide] | 38 nM | 77 | 2940 nM |
| 0.44 | 11.6 ×10⁻⁶ cm/s | 0.99 | Cn1ncc2c(NC(=O)C(=O)N3CC4(CC4)C[C@@H]4Oc5cc(C(F)(F)F)ccc5[C@@H]43)cnc(N)c21 [Example Ca-5, N-(7-amino-1-methyl-1H-pyrazolo[3,4-c]pyridin-4-yl)-2-oxo-2-((4aS,9bS)-7-(trifluoromethyl)-4a,9b-dihydro-2H-spiro[benzofuro[3,2-b]pyridine-3,1′-cyclopropan]-1(4H)-yl)acetamide] | 8 nM | 73 | 589 nM |
| 9 | 19.7 ×10⁻⁶ cm/s | 2.5 | C[C@@H]1C[C@@H]2Oc3nc(C(F)(F)F)ccc3[C@@H]2N(C(=O)C(=O)Nc2cnc(N)c3c2cnn3C)C1 [Example Ca-8, N-(7-amino-1-methyl-1H-pyrazolo[3,4-c]pyridin-4-yl)-2-((3R,4aS,9bS)-3-methyl-7-(trifluoromethyl)-3,4,4a,9b-tetrahydrofuro[2,3-b:4,5-b′]dipyridin-1(2H)-yl)-2-oxoacetamide] | 13 nM | 93 | 1200 nM |
| 2.6 | 9.3 ×10⁻⁶ cm/s | 0.9 | Cn1ncc2c(NC(=O)C(=O)N3CCC[C@@H]4Oc5cc(OC(F)(F)F)cc(F)c5[C@@H]43)cnc(N)c21 [Example Ca-6, N-(7-amino-1-methyl-1H-pyrazolo[3,4-c]pyridin-4-yl)-2-((4aS,9bS)-9-fluoro-7-(trifluoromethoxy)-3,4,4a,9b-tetrahydrobenzofuro[3,2-b]pyridin-1(2H)-yl)-2-oxoacetamide] | 13 nM | 144 | 1880 nM |
| 1.1 | 21.4 ×10⁻⁶ cm/s |  | Cn1ncc2c(NC(=O)C(=O)N3CCC[C@@H]4Oc5cc(Cl)ccc5[C@@H]43)cnc(N)c21 [Example Ca-7, N-(7-amino-1-methyl-1H-pyrazolo[3,4-c]pyridin-4-yl)-2-((4aS,9bS)-7-chloro-3,4,4a,9b-tetrahydrobenzofuro[3,2-b]pyridin-1(2H)-yl)-2-oxoacetamide] | 16 nM | 108 | 1700 nM |
